Measurements: patent publication US9868722B2, “Monocyclic pyrimidine/pyridine compounds as inhibitors of P97 complex” (Cleave Biosciences, Inc., priority 2013, dated 2018)
Like-named read-outs stand apart in the source and are kept apart here.

How the values were obtained:
[1] = tested on: A549 cells; experiment: Cultured cancer cell viability assay (cell titer glo, A549 CTG); type: cell-based; details: Homo sapiens
Text: Anti-tumor effects are monitored in cultured cancer cells after several days of compound treatment. The cell titer glo assay (Promega) measures the amount of ATP present as a proxy for cellular viability. Cellular counting is done using high-content microscopy followed by image analysis. A hanging drop 3D-culture system (3D Biomatrix) is used followed by cell titer glo to measure growth in a tumor-like environment.
The cellular assay provides information about the anti-neoplastic activity of the compounds of the invention. The compounds are tested against cultured cancer cells to determine whether or not the compounds of the invention are capable of intersecting with cancer cells to minimize or eliminate such cells. The assay involves establishing colonies of such cells and then treating them with the test compound under specified conditions and analysis regime to determine results.
(§1) Plate 25 μL of A549 cells in every well of 384-well plate using multidrop.
One (1) white plate for viability at 500 cells/well.
Serial dilute compounds with a 10 point 2-fold serial dilution in DMSO to make 250× stock compound solution
Dilute compounds 1:125 in cell culture media to make a 2× solution Add 25 μl of dilution compounds to cell plates in well duplicates
Put cells back in incubator (6 hr incubation for black plates, 72 hr incubation for white plates).
Thaw an aliquot of frozen cell titer glo (Promega G7572) at room temperature.
Add 45 mL of NaCl/PBS solution to 5 ml of cell titer glo (10×).
Remove white plates from incubator, leave at room temp for 30 minutes.
Add 25 μl of diluted cell titer glo to each well.
Shake plate for >1 minute.
Incubate plate for >5 minutes to stabilize luminescence. • Luminescence is stable for up to 3 hours.
Read luminescence on plate reader
The results are reported on the following Table I for Examples A-EE and the E1-E4 compounds as 50 percent Inhibitory concentration at candidate doses of less than 1 μM, less than 3 μM and less than 10 μM for both of the K48 antibody and the p53 (CTG) antibody assays

[2] = tested on: K48 poly-Ubiquitin accumulation in A549 cells; experiment: A549 K48 poly-ubiquitin accumulation immunofluorescence assay; type: cell-based; details: Homo sapiens
Procedure: Image-analysis is used to generate quantitative data from these assays that can be fit to a four-parameter sigmoid curve to derive IC50 values. Substrates of the ubiquitin-proteasome system, such as p53, are monitored after tumor cell lines are incubated with compounds for several hours. Accumulation of these proteins indicates an inhibition of proteasome-mediated degradation. Accumulation of lysine-48 chain linkage of poly-ubiquitin is also monitored by immunofluorescence as an indicator of ubiquitin-proteasome system inhibition. Both LC3 and SQSTM1 are mediators of autophagy. The localization and amounts of these proteins are monitored by immunofluorescence and report on the activity and inhibition of autophagy in response to p97 inhibition.
as §1
Two (2) black plates for IF at 2500 cells/well
Serial dilute compounds with a 10 point 2-fold serial dilution in DMSO to make 250× stock compound solution Dilute compounds 1:125 in cell culture media to make a 2× solution Add 25 μl of dilution compounds to cell plates in well duplicates Put cells back in incubator (6 hr incubation for black plates, 72 hr incubation for white plates).
Incubate cells in black plates with compound at 37 degC for 6 hrs. add 15 μL of 16% Paraformaldehyde (PFA) directly into media of each well, incubate at room temp for 5 min, flick plate and wash in 50 μL of PBS block in 50 μL of Blocking Buffer for 30 minutes (can go up to several hours) Blocking buffer: 1×PBS, 1% BSA, 0.3% Triton-X100, Hoechst (1:10,000) incubate in 25 μL of primary antibody in blocking buffer at 4 degC over night […]
Secondary Antibodies: • AlexaFluor488 Goat anti-Rabbit 1:2,000 (Life Tech A11008) • AlexaFluor555 Goat anti-Mouse 1:2,000 (Life Tech A21422) incubate in 25 μl of secondary antibody (1:2,000) in blocking buffer for 1-2 hrs at room temp (alexafluor488-anti-Rabbit/alexafluor555-anti-Mouse) Image plates in high content microscope with 405 nm, 488 nm and 555 nm filters Nuclear counts and cellular intensities of each markers are measured using Hoechst as a nuclear marker with an automated image analysis protocol using Matlab software (Math Works) The results are reported on the following Table I for Examples A-EE and the E1-E4 compounds as 50 percent Inhibitory concentration at candidate doses of less than 1 μM, less than 3 μM and less than 10 μM for both of the K48 antibody and the p53 (CTG) antibody assays

[3] = target: p97 (Homo sapiens, UniProt P55072); experiment: P97 ATPase biochemical assay (ADP Glo)
Procedure: The ATPase assay is performed according the following protocol: Purified enzyme (20 nM p97), substrate (20 μM ATP) and a dose titration of compounds are mixed in buffer (50 mM TRIS pH 7.5, 20 mM MgCl2, 0.02% TX-100, 1 mM DTT, 0.2% (v/v) glycerol) and incubated at 37° C. for 15 minutes. The reaction is terminated and the level of product generated is measured using the ADP Glo Assay Kit (Promega, Madison Wis.). Plotting product generated versus compound concentration and using a four-parameter fit model generates an IC50 value for each compounds.
The p97 assay is an initial screening assay used to determine inhibitory activity of the monocyclic pyrimidine compounds of the invention against the p97 complex. As discussed above, inhibition of activity of the p97 proteosome complex can enable apoptosis and cause elimination of neoplastic cells (cancer cells). The method follows that of Christianson in Nat. Cell Biol., (2011) 14:93.
Assay Buffer is a mixture of 50 mM TRIS pH 7.5, 20 mM MgCl2, 0.02% TX-100, 1 mM DTT and 0.2% (v/v) Glycerol. The well plate is Platetype: Corning 3674, 384w plate. The identification kit is an ADP glo kit (Promega): stop buffer, detection reagent.
Serial dilute compound in DMSO in a 1:3.33-fold 10 point serial dilution.
0.5 μL compound serial diluted in DMSO (Final Conc. 10%)
2 μL ATP (Final Conc.=20 uM, diluted in assay buffer)
2.5 μL p97 (Final Conc.=20 nM, diluted in assay buffer)
Incubate at 37 degC for 15 min.
Add 5 μL of stop buffer, incubate at RT for 40 min.
Add 10 μL of detection reagent, incubate at RT for 30 min.
Read luminescence on Envision plate reader. • Upon obtaining the data from the luminescence reading, the data may be analyzed as follows:
Normalize luminescence data using no enzyme (full inhibition) and no compound (no inhibition) controls. Plot normalized luminescence data against log-transformed concentration values and fit to a sigmoidal curve to determine IC50 values (done in Collaborative Drug Discovery software).
The results are reported on the following Table for Examples A-EE and the E1-E4 compounds as 50 percent Inhibitory concentration at candidate doses of less than 30 nM, less than 100 nM, less than 300 nM and less than 1000 nM for the p97 inhibition assay.

[4] = A549 cells, 72 hr incubation, cell titer glo, read-out: A549 CTG IC50
[5] = A549 cells, 6 hr incubation, K48-Ub antibody, read-out: A549 K48 IC50
[6] = 20 nM p97, 20 uM ATP, 37 degC 15 min

p97, sequence (P55072 whole entry): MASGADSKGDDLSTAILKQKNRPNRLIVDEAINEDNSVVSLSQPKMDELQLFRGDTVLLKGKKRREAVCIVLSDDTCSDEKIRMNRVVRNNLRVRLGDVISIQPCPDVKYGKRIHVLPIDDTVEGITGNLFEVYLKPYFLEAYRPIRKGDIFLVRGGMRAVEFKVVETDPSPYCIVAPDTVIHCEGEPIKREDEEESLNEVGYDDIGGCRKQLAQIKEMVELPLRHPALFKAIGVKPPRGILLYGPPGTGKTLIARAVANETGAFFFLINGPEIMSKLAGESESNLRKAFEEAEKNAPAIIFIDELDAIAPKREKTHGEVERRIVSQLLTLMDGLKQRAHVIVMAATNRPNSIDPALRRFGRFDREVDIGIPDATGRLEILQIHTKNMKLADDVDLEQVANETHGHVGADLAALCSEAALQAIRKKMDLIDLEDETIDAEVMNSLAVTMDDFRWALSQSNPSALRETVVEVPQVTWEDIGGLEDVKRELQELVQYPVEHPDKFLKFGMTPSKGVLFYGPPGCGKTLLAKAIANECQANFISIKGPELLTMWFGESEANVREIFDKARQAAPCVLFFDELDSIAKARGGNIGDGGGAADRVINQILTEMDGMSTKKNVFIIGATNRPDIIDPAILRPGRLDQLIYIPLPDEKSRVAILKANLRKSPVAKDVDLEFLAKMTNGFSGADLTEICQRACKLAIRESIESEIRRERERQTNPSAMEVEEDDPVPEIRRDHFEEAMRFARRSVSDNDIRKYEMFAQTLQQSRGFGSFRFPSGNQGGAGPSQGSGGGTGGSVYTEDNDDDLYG

SMILES	IC50 [1, 4] [nM]	IC50 [2, 5] [nM]	IC50 [3, 6] [nM]	IC50 ([1]; A549, Table II, preliminary assays, read-out: Cell Titre Glow Assay IC50) [nM]	IC50 ([2]; A549, Table II, preliminary assays, read-out: K48 poly-Ubiquitin Accumulation) [nM]	IC50 ([3]; Table II, preliminary assays) [nM]
Cc1nc(-n2ncc3c(C(N)=O)cccc32)nc(NCc2ccccc2)c1C(C)C [Example 11, 1-(4-(benzylamino)-5-isopropyl-6-methylpyrimidin-2-yl)-1H-indazole-4-carboxamide]	< 3000	< 3000	< 300			
Cc1cc2c(C(N)=O)cccc2n1-c1ncc(C(C)C)c(NCc2ccccc2)n1 [Example 12, 1-(4-(benzylamino)-5-(propan-2-yl)pyrimidin-2-yl)-2-methyl-1H-indole-4-carboxamide]	< 1000	< 3000	< 30	730	640	9
Cc1cc2c(C(N)=O)cccc2n1-c1ncc(N(C)C)c(NCc2ccccc2)n1 [Example 13, 1-(4-(benzylamino)-5-(dimethylamino)pyrimidin-2-yl)-2-methyl-1H-indole-4-carboxamide]	< 3000	< 1000	< 30			
Cc1nc(-n2c(C)cc3c(C(N)=O)cccc32)nc(NCc2ccccc2)c1N(C)C [Example 15, 1-[4-(benzylamino)-5-(dimethylamino)-6-methylpyrimidin-2-yl]-2-methyl-1H-indole-4-carboxamide]	< 3000	< 3000	< 30			
COCc1cnc(-n2c(C)cc3c(C(N)=O)cccc32)nc1NCc1ccccc1 [Example 18, 1-[4-(benzylamino)-5-(methoxymethyl)pyrimidin-2-yl]-2-methyl-1H-indole-4-carboxamide]	< 10000	< 3000	< 300			
Cc1cc2c(C(N)=O)cccc2n1-c1ncc(S(C)(=O)=O)c(NCc2ccccc2)n1 [Example 19, 1-[4-(benzylamino)-5-(methylsulfonyl)pyrimidin-2-yl]-2-methyl-1H-indole-4-carboxamide]	< 3000	< 3000	< 100			
CC(=O)NCc1cnc(-n2c(C)cc3c(C(N)=O)cccc32)nc1NCc1ccccc1 [Example 24, 1-[4-(benzylamino)-5-(acetamidomethyl)pyrimidin-2-yl]-2-methyl-1H-indole-4-carboxamide]	< 10000	< 10000	< 300			
Cc1cc2c(C(N)=O)cccc2n1-c1ncc(OC(C)C)c(NCc2ccccc2)n1 [Example 26, 1-[4-(benzylamino)-5-(propan-2-yloxy)pyrimidin-2-yl]-2-methyl-1H-indole-4-carboxamide]	< 3000	< 3000	< 100			
CCOc1cnc(-n2c(C)cc3c(C(N)=O)cccc32)nc1NCc1ccccc1 [Example 27, 1-[4-(benzylamino)-5-ethoxypyrimidin-2-yl]-2-methyl-1H-indole-4-carboxamide]	< 3000	< 3000	< 30			
COCCOc1cnc(-n2c(C)cc3c(C(N)=O)cccc32)nc1NCc1ccccc1 [Example 28, 1-[4-(benzylamino)-5-(2-methoxyethoxy)pyrimidin-2-yl]-2-methyl-1H-indole-4-carboxamide]	< 10000	< 3000	< 100			
COc1cnc(-n2c(CN)cc3c(C(N)=O)cccc32)nc1NCc1ccccc1 [Example 29, 2-(aminomethyl)-1-(4-(benzylamino)-5-methoxypyrimidin-2-yl)-1H-indole-4-carboxamide]	< 3000	< 1000	< 100			
CC(C)c1cnc(-n2c(CN)cc3c(C(N)=O)cccc32)nc1NCc1ccccc1 [Example 30, 2-(aminomethyl)-1-[4-(benzylamino)-5-(propan-2-yl)pyrimidin-2-yl]-1H-indole-4-carboxamide]	< 3000	< 3000	< 100			
COc1nc(-n2c(C)cc3c(C(N)=O)cccc32)nc(NCc2ccccc2)c1C [Example 33, 1-(4-(benzylamino)-6-methoxy-5-methylpyrimidin-2-yl)-2-methyl-1H-indole-4-carboxamide]	< 10000	< 3000	< 30			
Cc1cc2c(C(N)=O)cccc2n1-c1ncc(C(C)O)c(NCc2ccccc2)n1 (stereo not drawn) [Example 34, 1-[4-(benzylamino)-5-(1-hydroxyethyl)pyrimidin-2-yl]-2-methyl-1H-indole-4-carboxamide]	< 3000	< 3000	< 30			
Cc1cc2c(C(N)=O)cccc2n1-c1ncc(C(C)N)c(NCc2ccccc2)n1 (stereo not drawn) [Example 35, 1-[5-(1-aminoethyl)-4-(benzylamino)pyrimidin-2-yl]-2-methyl-1H-indole-4-carboxamide]	< 10000	< 10000	< 100			
CNCc1nc(-n2c(C)cc3c(C(N)=O)cccc32)nc(NCc2ccccc2)c1C [Example 36, 1-[4-(benzylamino)-5-methyl-6-[(methylamino)methyl]pyrimidin-2-yl]-2-methyl-1H-indole-4-carboxamide]	< 10000	< 10000	< 100			
COc1cnc(-n2c(C)cc3c(CN)cccc32)nc1NCc1ccccc1 [Example 37, 2-[4-(aminomethyl)-2-methyl-1H-indol-1-yl]-N-benzyl-5-methoxypyrimidin-4-amine]	< 10000	< 3000	< 1000			
